Data from patent US9695155B2, “Herbicidal substituted pyrimidinyloxy benzene compounds” (E. I. DU PONT DE NEMOURS AND COMPANY, priority 2013, dated 2017).

Tests used:
waterhemp = assay: Test C postemergence; type: in vivo, Amaranthus rudis
Description: (§1) Seeds of plant species selected from blackgrass (Alopecurus myosuroides), Italian ryegrass (Lolium multiflorum), wheat, winter (winter wheat, Triticum aestivum), galium (catchweed bedstraw, Galium aparine), corn (Zea mays), large (Lg) crabgrass (Digitaria sanguinalis), giant foxtail (Setaria faberii), johnsongrass (Sorghum halepense), lambsquarters (Chenopodium album), morningglory (Ipomoea coccinea), yellow nutsedge (Cyperus esculentus), pigweed (Amaranthus retroflexus), ragweed (common ragweed, Ambrosia elatior), soybean (Glycine max), barnyardgrass (Echinochloa crus-galli), oilseed rape (Brassica napus), waterhemp (common waterhemp, Amaranthus rudis), kochia (Kochia scoparia), wild oat (Avena fatua), surinam grass (Brachiaria decumbens), foxtail, green (green foxtail, Setaria viridis), goosegrass (Eleusine indica), bromegrass, downy (downy bromegrass, Bromus tectorum), nightshade (eastern black nightshade, Solanum ptycanthum), cocklebur (common cocklebur, Xanthium strumarium), cupgrass, woolly (woolly cupgrass, Eriochloa villosa), bermudagrass (Cynodon dactylon), sunflower, (common oilseed sunflower, Helianthus annuus), Russian thistle (Salsola kali), and velvetleaf (Abutilon theophrasti) were planted into a blend of loam soil and sand and treated preemergence with test chemicals formulated in a non-phytotoxic solvent mixture which included a surfactant.
(§2) At the same time, plants selected from these crop and weed species and also barley, winter (winter barley, Hordeum vulgare), windgrass (Apera spica-venti), chickweed (common chickweed, Stellaria media), deadnettle (henbit deadnettle, Lamium amplexicaule), and canarygrass (littleseed canarygrass, Phalaris minor) were planted in pots containing Redi-Earth® planting medium (Scotts Company, 14111 Scottslawn Road, Marysville, Ohio 43041) comprising spaghnum peat moss, vermiculite, wetting agent and starter nutrients and treated with postemergence applications of test chemicals formulated in the same manner. Plants ranged in height from 2 to 18 cm (1- to 4-leaf stage) for postemergence treatments. Treated plants and controls were maintained in a greenhouse for 13 to 15 days, after which time all species were compared to controls and visually evaluated. Plant response ratings, summarized in Table C, are based on a scale of 0 to 100 where 0 is no effect and 100 is complete control. A dash (-) response means no test result.

pigweed [1] = assay: Test A postemergence; type: in vivo, Amaranthus retroflexus; conditions: Amaranthus retroflexus, post-emergence, 240 h, 1000 g ai/ha, 0 to 100 scale, 0 no effect, 100 complete control, read-out: Plant response rating Pigweed
Outline: (§3)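 Pre- and postemergence greenhouse screen. Soil: loam + sand. Spray carrier: solvent mixture, non-phytotoxic, with surfactant. Post timing at 1–2 leaves, height 2–10 cm. Readout: visual injury on a 0–100 scale roughly 10 days after application, untreated plants as reference.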

sedge, umbrella = assay: Test B flooded paddy test; type: in vivo, Cyperus difformis; conditions: Cyperus difformis, Flood, 250 g ai/ha; 0 to 100 scale where 0 is no effect and 100 is complete control; read-out: Plant response rating, Sedge, Umbrella
Outline: (§4)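 2-leaf stage plants; pots flooded to 3 cm, compound added to paddy water, depth maintained. Greenhouse 13–15 d. Visual rating vs untreated controls, 0 (no effect) to 100 (complete control); dash = no result.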

barnyardgrass [2] = assay: Test B flooded paddy test; type: in vivo, Echinochloa crus-galli; conditions: Echinochloa crus-galli; Flood, 250 g ai/ha; 0 to 100 scale where 0 is no effect and 100 is complete control; read-out: Plant response rating, Barnyardgrass
Outline: as §4

Heteranthera limosa = assay: Test B flooded paddy test; type: in vivo; conditions: Heteranthera limosa, Flood, 250 g ai/ha; 0 to 100 scale where 0 is no effect and 100 is complete control; read-out: Plant response rating, Ducksalad
Outline: as §4

chickweed = assay: Test C postemergence; type: in vivo, Stellaria media; conditions: Stellaria media, post-emergence
Outline: (§5)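 Visual injury score versus untreated controls, 0 = no effect, 100 = complete control, taken 13 to 15 days after treatment in the greenhouse. Pre-emergence pots held loam/sand; post-emergence plants grew in sphagnum peat/vermiculite mix and were sprayed at the 1- to 4-leaf stage.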

pigweed [3] = assay: Test A preemergence; type: in vivo, Amaranthus retroflexus; conditions: Amaranthus retroflexus, pre-emergence, 240 h, 1000 g ai/ha, 0 to 100 scale, 0 no effect, 100 complete control, approx. 10 days, read-out: Pigweed plant response rating
Outline: as §3

large (Lg) crabgrass = assay: Test C postemergence; type: in vivo, Digitaria sanguinalis; conditions: Digitaria sanguinalis, post-emergence
Description: as §1, §2

johnsongrass = assay: Test C postemergence; type: in vivo, Sorghum halepense
Outline: as §5

corn = assay: Test C postemergence; type: in vivo, Zea mays; conditions: Zea mays, post-emergence
Description: as §1, §2

barnyardgrass [4] = assay: Test C postemergence; type: in vivo, Echinochloa crus-galli; conditions: Echinochloa crus-galli, post-emergence
Description: as §1, §2

wheat, winter = assay: Test C postemergence; type: in vivo, Triticum aestivum
Outline: as §5

oilseed rape = assay: Test C postemergence; type: in vivo, Brassica napus
Description: as §1, §2

[5] = 31 g ai/ha, postemergence, visual rating, scale 0 to 100 (0 no effect, 100 complete control), 13 to 15 days

Clc1cnc(Oc2ccccc2-n2cc(C3CC3)nn2)nc1 [Compound 160, 5-chloro-2-[2-(4-cyclopropyl-1H-1,2,3-triazol-1-yl)phenoxy]pyrimidine]
Waterhemp plant response rating (waterhemp; [5]): 35
pest or weed control at 16 g/ha (waterhemp; Amaranthus tuberculatus, post-emergence, 16 g ai/ha, postemergence, 0 is no effect, 100 is complete control, read-out: Plant response rating (0 to 100), Waterhemp): 70%
pest or weed control at 125 g/ha (waterhemp; Amaranthus tuberculatus, post-emergence, 125 g ai/ha, postemergence, visual rating, scale 0 to 100 (0 no effect, 100 complete control), read-out: Plant response rating, Waterhemp): 85%
pest or weed control at 62 g/ha (waterhemp; Amaranthus tuberculatus, post-emergence, Postemergence, 62 g ai/ha, scale 0 to 100 (0 no effect, 100 complete control), read-out: Plant response rating, Waterhemp): 70%
pest or weed control at 1000 g/ha (pigweed [1]): 100%
pest or weed control at 250 g/ha (sedge, umbrella): 75%
pest or weed control at 250 g/ha (barnyardgrass [2]): 35%
pest or weed control at 250 g/ha (Heteranthera limosa): 80%
pest or weed control at 16 g/ha (chickweed; 16 g ai/ha, postemergence, 0 is no effect, 100 is complete control, read-out: Plant response rating (0 to 100), Chickweed): 50%
pest or weed control at 31 g/ha (chickweed; 31 g ai/ha, postemergence, visual rating, scale 0 to 100 (0 no effect, 100 complete control), 13 to 15 days, read-out: Chickweed plant response rating): 55%
pest or weed control at 125 g/ha (chickweed; 125 g ai/ha, postemergence, visual rating, scale 0 to 100 (0 no effect, 100 complete control), read-out: Plant response rating, Chickweed): 70%
pest or weed control at 62 g/ha (chickweed; Postemergence, 62 g ai/ha, scale 0 to 100 (0 no effect, 100 complete control), read-out: Plant response rating, Chickweed): 80%
pest or weed control at 1000 g/ha (pigweed [3]): 100%
pest or weed control at 16 g/ha (large (Lg) crabgrass; 16 g ai/ha, postemergence, 0 is no effect, 100 is complete control, read-out: Plant response rating (0 to 100), Crabgrass, Large): 5%
pest or weed control at 31 g/ha (large (Lg) crabgrass; 31 g ai/ha, postemergence, visual rating, scale 0 to 100 (0 no effect, 100 complete control), 13 to 15 days, read-out: Crabgrass, Large plant response rating): 5%
pest or weed control at 125 g/ha (large (Lg) crabgrass; 125 g ai/ha, postemergence, visual rating, scale 0 to 100 (0 no effect, 100 complete control), read-out: Plant response rating, Crabgrass, Large): 10%
pest or weed control at 62 g/ha (large (Lg) crabgrass; Postemergence, 62 g ai/ha, scale 0 to 100 (0 no effect, 100 complete control), read-out: Plant response rating, Crabgrass, Large): 5%
Johnsongrass plant response rating (johnsongrass; [5]): 0
pest or weed control at 16 g/ha (johnsongrass; Sorghum halepense, post-emergence, 16 g ai/ha, postemergence, 0 is no effect, 100 is complete control, read-out: Plant response rating (0 to 100), Johnsongrass): 0%
pest or weed control at 125 g/ha (johnsongrass; Sorghum halepense, post-emergence, 125 g ai/ha, postemergence, visual rating, scale 0 to 100 (0 no effect, 100 complete control), read-out: Plant response rating, Johnsongrass): 5%
pest or weed control at 62 g/ha (johnsongrass; Sorghum halepense, post-emergence, Postemergence, 62 g ai/ha, scale 0 to 100 (0 no effect, 100 complete control), read-out: Plant response rating, Johnsongrass): 0%
plant injury at 16 g/ha (corn; 16 g ai/ha, postemergence, 0 is no effect, 100 is complete control, read-out: Plant response rating (0 to 100), Corn): 0%
plant injury at 31 g/ha (corn; 31 g ai/ha, postemergence, visual rating, scale 0 to 100 (0 no effect, 100 complete control), 13 to 15 days, read-out: Corn plant response rating): 5%
Corn plant response rating (crop injury, 0 = no effect, 100 = complete kill) at 125 g/ha (corn; 125 g ai/ha, postemergence, visual rating, scale 0 to 100 (0 no effect, 100 complete control)): 5%
Corn plant response rating (crop injury, 0 = no effect, 100 = complete kill) at 62 g/ha (corn; Postemergence, 62 g ai/ha, scale 0 to 100 (0 no effect, 100 complete control)): 5%
pest or weed control at 16 g/ha (barnyardgrass [4]; 16 g ai/ha, postemergence, 0 is no effect, 100 is complete control, read-out: Plant response rating (0 to 100), Barnyardgrass): 5%
pest or weed control at 31 g/ha (barnyardgrass [4]; 31 g ai/ha, postemergence, visual rating, scale 0 to 100 (0 no effect, 100 complete control), 13 to 15 days, read-out: Barnyardgrass plant response rating): 5%
pest or weed control at 125 g/ha (barnyardgrass [4]; 125 g ai/ha, postemergence, visual rating, scale 0 to 100 (0 no effect, 100 complete control), read-out: Plant response rating, Barnyardgrass): 5%
pest or weed control at 62 g/ha (barnyardgrass [4]; Postemergence, 62 g ai/ha, scale 0 to 100 (0 no effect, 100 complete control), read-out: Plant response rating, Barnyardgrass): 5%
Wheat plant response rating (wheat, winter; [5]): 5
plant injury at 16 g/ha (wheat, winter; Triticum aestivum, post-emergence, 16 g ai/ha, postemergence, 0 is no effect, 100 is complete control, read-out: Plant response rating (0 to 100), Wheat): 0%
plant injury at 125 g/ha (wheat, winter; Triticum aestivum, post-emergence, 125 g ai/ha, postemergence, visual rating, scale 0 to 100 (0 no effect, 100 complete control), read-out: Plant response rating, Wheat): 5%
plant injury at 62 g/ha (wheat, winter; Triticum aestivum, post-emergence, Postemergence, 62 g ai/ha, scale 0 to 100 (0 no effect, 100 complete control), read-out: Plant response rating, Wheat): 5%
Oilseed Rape plant response rating (oilseed rape; [5]): 55
plant injury at 16 g/ha (oilseed rape; Brassica napus, post-emergence, 16 g ai/ha, postemergence, 0 is no effect, 100 is complete control, read-out: Plant response rating (0 to 100), Oilseed Rape): 10%
plant injury at 125 g/ha (oilseed rape; Brassica napus, post-emergence, 125 g ai/ha, postemergence, visual rating, scale 0 to 100 (0 no effect, 100 complete control), read-out: Plant response rating, Oilseed Rape): 60%
plant injury at 62 g/ha (oilseed rape; Brassica napus, post-emergence, Postemergence, 62 g ai/ha, scale 0 to 100 (0 no effect, 100 complete control), read-out: Plant response rating, Oilseed Rape): 60%
